Data reported in patent US20250312332A1, “TREATMENT OF MUSCLE FIBROSIS” (University of Newcastle upon Tyne, priority 2022, published 2025).
“And” between values parts separate entries of the source, which are not always exact repeats. Equal entries are not always repeated. “Also recorded” adds a separate entry of the source. Where two headings read alike, the source gives them in different places.

Tests used:
RhoA-GTP = format: cell-based, human; conditions: DMD-FAPs, PDGF-AA 50 ng/ml 20 min, vs untreated FAPs
[1] = system: myosin light chain 2 (p-MLC2); format: cell-based, human
FAPs [2] = format: cell-based, human
FAPs [3] = format: cell-based, human; conditions: for increase in FAPs proliferation: vs untreated FAPs
FAPs [4] = format: cell-based, human; conditions: for increase in FAPs migration: vs untreated FAPs
FAPs [5] = format: cell-based, human; remark: listed apart in the source
FAPs [6] = system: FAPs
PKA = conditions: cited from earlier work
MLCK = conditions: read-out: IC50 for MLCK; cited from earlier work
CaM kinase II = conditions: cited from earlier work
dba/2J-mdx mice [7] = assay: Fasudil treatment of dba/2J-mdx mice: behaviour and weight; conditions: mouse, in vivo
RhoA pathway = assay: RhoA downstream effectors in quadriceps of dba/2J-mdx mice (qPCR, IF); format: in vivo, mouse
dba/2J-mdx mice [8] = assay: Grip strength test in dba/2J-mdx mice; format: in vivo, mouse; conditions: after six weeks of treatment, vs non-treated mice
dba/2J-mdx mice [9] = assay: Quadriceps histology and immunofluorescence in dba/2J-mdx mice; format: in vivo, mouse
dba/2J-mdx mice [10] = assay: Flow cytometry of muscle macrophages in dba/2J-mdx mice; format: in vivo, mouse
dba/2J-mdx mice [11] = assay: Cytokine array of quadriceps in dba/2J-mdx mice; format: in vivo, mouse; conditions: treated vs non-treated mice

## PDGF-AA
RhoA-GTP
  increase in the RhoA-GTP levels: 1.88 fold
[1]; DMD-FAPs treated with PDGF-AA
  increase in MLC2 phosphorylation: 2.3 fold
FAPs [2]
  polymerization of intracellular actin filaments: induced polymerization
FAPs [3]; 48 hours
  increase in FAPs proliferation: 3.6 fold
FAPs [3]; 72 hours
  increase in FAPs proliferation: 6 fold
FAPs [4]; 48 hours
  increase in FAPs migration: 2.48 fold
FAPs [4]; 72 hours
  increase in FAPs migration: 3.37 fold
FAPs [5]; 4 days treatment
  release of collagen-I to the culture medium: increased non-significantly
FAPs [6]
  cell viability: did not affect cell viability

## myosin light chain kinase inhibitor peptide, sequence RKKYKYRRK (SEQ ID NO:1) (MLCK inhibitor peptide 18) [MLCK18]
PKA
  inhibition of PKA: without inhibiting PKA
MLCK
  IC50: 50 nM
CaM kinase II
  selectivity vs CaM kinase II: 4000 fold

## O=S(=O)(c1cccc2cnccc12)N1CCCNCC1 [Fasudil, 5-(1,4-diazepan-1-ylsulfonyl)isoquinoline]
[1]
  effect on PDGF-AA-induced MLC2 phosphorylation: reversed
FAPs [2]
  polymerization of intracellular actin filaments: impinged
FAPs [3]
  decrease in proliferation rate: 2.6 fold
  proliferation inhibition: lack of proliferation inhibition
FAPs [4]
  reduction of migration rate: 2.43 fold and 4 fold
FAPs [5]
  release of collagen-I to the culture medium: reversed
dba/2J-mdx mice [7]
  behaviour during the treatment period (adverse effects): did not experience any change in their behaviour
  body weight, treated vs untreated mice: decrease in weight
RhoA pathway; 100 mg/kg/day orally 6 weeks
  RhoA pathway downstream effector targets (ROCK2, LIMK2, FHOD1): inhibited RhoA pathway
RhoA pathway; treated vs untreated mice
  protein expression of LIMK2: significantly reduced
  protein expression of MLC2: significantly reduced
dba/2J-mdx mice [8]
  increase in forelimb strength: 1.76 fold
dba/2J-mdx mice [9]; 100 mg/kg/day orally 6 weeks
  reduction in collagen-I area in the quadriceps: 23%
dba/2J-mdx mice [9]; treated vs non-treated mice
  myofiber size: significant increase
  neutrophil population in quadriceps: trend towards a reduction
  number of T and B cells in quadriceps: no changes
dba/2J-mdx mice [9]; treated vs non-treated, not significant
  decrease in the PDGFRα area (number of FAPs) in quadriceps: 42%
dba/2J-mdx mice [9]; treated vs untreated mice
  reduction of quadriceps area stained with F4/80 (macrophages): 74%
dba/2J-mdx mice [10]; flow cytometry, treated vs non-treated mice
  decrease in the number of F4/80 positive cells: 18.3%
dba/2J-mdx mice [10]; skeletal muscles of treated mice
  reduction in the expression levels of CD163 marker in macrophages: 31%
dba/2J-mdx mice [10]; treated mice
  reduction in the expression levels of CD206 marker in macrophages: 18%
dba/2J-mdx mice [10]; treated vs non-treated mice
  expression levels or number of CD209 cells (M2 macrophages): did not observe any difference
  percentage of positive cells or expression of CD80 and DR (M1 markers): did not observe changes
dba/2J-mdx mice [10]; vs non-treated mice
  lower number of CD163+ cells: 3%
  lower number of CD206+ cells: 10%
dba/2J-mdx mice [11]
  TNFα, IL-4, IL-17, CXCL1, CXCL2, CXCL10, CCL2, CCL3 or CCL17 cytokine levels: reduction
FAPs [6]
  cell viability: did not affect cell viability; also recorded: neither C3-exoenzyme nor fasudil had any effect on cell viability
